Several values for one entry are separate records, joined by “and”; a condition that tells them apart may be missing. Equal values may be shown once.
Columns and labels:
Format in all cases: functional, Homo sapiens
Set-up in all cases: dose or concentration left out as unconfirmed
Colon cancer organoid [1] = test: (§1) Image-based profiling of donated chemical probes and chemogenomic kinase set in O06 CRC organoid. Image analysis is performed on the sum area metric, and the data were normalized to the DMSO control. After imaging the organoid viability is measured using the OneGloEX Luciferase Assay System. The normalized viability data and sum area are reported.
Colon cancer organoid [2] = test: as §1, with “O09” for “O06”
Colon cancer organoid [3] = test: as §1, with “O21” for “O06”

SMILES	Cell Viability (Colon cancer organoid [1]; Replication number 1)	Cell Viability (Colon cancer organoid [1]; Replication number 2)	Cell Viability (Colon cancer organoid [2]; Replication number 1)	Cell Viability (Colon cancer organoid [2]; Replication number 2)	Cell Viability (Colon cancer organoid [3]; Replication number 1)	Cell Viability (Colon cancer organoid [3]; Replication number 2)
CC(C)Oc1ccc(-c2nn([C@@H](C)c3oc4ccc(F)cc4c(=O)c3-c3cccc(F)c3)c3ncnc(N)c23)cc1F [UMBRALISIB]	88.4125% and 133.76%	91.2943% and 112.494%	196.172% and 129.157%	74.9501% and 109.33%	111.232% and 144.39%	124.887% and 154.3%
CC[C@@H]1CN(C(=O)NCC(F)(F)F)C[C@@H]1c1cnc2cnc3[nH]ccc3n12 [UPADACITINIB]	103.03% and 85.909%	77.8559% and 94.8072%	147.971% and 117.189%	96.4317% and 92.8632%	100.634% and 104.808%	99.9708% and 92.6952%
CNC(=O)c1ccccc1Nc1cc(Nc2ccc(N3CCOCC3)cc2OC)ncc1C(F)(F)F [VS-4718]	26.6369% and 55.3846%	24.9671% and 46.6122%	16.1966% and 32.4497%	15.3454% and 34.2982%	46.4172% and 62.2044%	35.2448% and 60.1632%
O=C(NNS(=O)(=O)c1ccccc1F)c1cc(F)cc(-c2ccccn2)c1 [WM-1119]	59.5797% and 94.7368%	61.7919% and 84.5747%	133.421% and 96.9739%	39.4001% and 91.3957%	82.8466% and 99.3088%	81.4128% and 90.2447%
O=C(NNS(=O)(=O)c1ccccc1)c1cc(-c2ccnnc2)ccc1F [WM-2474]	103.665% and 117.571%	96.3756% and 98.5103%	112.004% and 108.416%	87.165% and 94.3695%	113.818% and 97.6719%	86.2106% and 79.5377%
Nc1nc(NCc2ccccc2)nc(-c2cccc(CO)c2)n1 [ZINC32547799]	89.5578% and 102.51%	72.3824% and 71.8405%	98.3992% and 98.4744%	101.098% and 100.714%	95.0079% and 87.3045%	101.984% and 101.971%
FC(F)c1nc2ccccc2n1-c1nc(N2CCOCC2)nc(N2CCOCC2)n1 [ZSTK-474]	51.8719% and 106.162%	61.9887% and 87.8149%	70.4686% and 75.7987%	41.1971% and 64.5183%	72.4296% and 85.8537%	82.8986% and 74.2713%

Source: ChEMBL document CHEMBL5724558, “Image-based profiling of drug vulnerabilities in CRC organoids” (2024)
